Assays:
MDA-MB-468 = experiment: NCI 60-cell line one-dose antiproliferative screen (SRB); assay type: cell-based; settings: Homo sapiens, read-out: growth inhibition % (GI%)
Experimental: (§1) Anticancer activity screening of the newly synthesised compounds was measured in vitro utilising 60 different human tumour cell lines provided by US National Cancer Institute according to previously reported standard procedure[41–43] as follows: Cells are inoculated into 96-well microtiter plates in 100 ml. After cell inoculation, the microtiter plates are incubated at 37 °C, 5% CO2, 95% air, and 100% relative humidity for 24 h prior to addition of experimental compounds. After 24 h, two plates of each cell line are fixed in situ with TCA, to represent a measurement of the cell population for each cell line at the time of compound addition (Tz). Experimental compounds are solubilised in dimethyl sulfoxide at 400-fold the desired final maximum test concentration and stored frozen prior to use. At the time of compound addition, an aliquot of frozen concentrate is thawed and diluted to twice the desired final maximum test concentration with a complete medium containing […] gentamicin. Aliquots of […] of the compounds dilutions are added to the appropriate microtiter wells already containing 100 ml of medium, resulting in the required final compound concentration. Following compound addition, the plates are incubated for an additional 48 h at 37 °C, 5% CO2, 95% air, and 100% relative humidity. For adherent cells, the assay is terminated by the addition of cold trichloroacetic acid (TCA). Cells are fixed in situ by the gentle addition of 50 ml of cold 50% (w/v) TCA (final concentration, 10% TCA) and incubated for […] at 4 °C. The supernatant is discarded, and the plates are washed five times with tap water and air-dried. Sulforhodamine B (SRB) solution (100 ml) at 0.4% (w/v) in 1% acetic acid is added to each well, and plates are incubated for 10 min at room temperature. After staining, the unbound dye is removed by washing five times with 1% acetic acid and the plates are air-dried. The bound stain is subsequently solubilised with a 10 mM trizma base, and the absorbance is read on an automated plate reader at a wavelength of 515 nm. For suspension cells, the methodology is the same except that the assay is terminated by fixing settled cells at the bottom of the wells by gently adding 50 ml of 80% TCA (final concentration, 16% TCA). Using the absorbance measurements [time zero, (Tz), control growth, (C), and test growth in the presence of compound (Ti)], the percentage growth is calculated for each compound. The One-dose data are reported as a mean graph of the percent growth of treated cells. The reported number is growth relative to the no-compound control, and relative to the time zero number of cells. This allows the detection of both growth inhibition and lethality.
(§2) Fifteen newly synthesised compounds were tested for their in vitro antiproliferative activity by the National Cancer Institute (NCI), Maryland, USA[50], under the Developmental Therapeutic Program (DTP)[41]^,[43]^,[51]^,[52]. The tested compounds were evaluated at a concentration of 10 µM on a panel of 60 tumour cell lines representing leukaemia and non-small cell lung, colon, CNS, melanoma, ovarian, renal, prostate, and breast cancers. The antiproliferative activity was presented by the NCI as percent growth of the treated cells and is presented in Table 1 as growth inhibition percentage (GI%) achieved by the tested compounds.

SF-295 = experiment: as above; assay type: cell-based; settings: Homo sapiens, read-out: growth inhibition % (GI%)
Experimental: as §1, §2

U251 = experiment: as above; assay type: cell-based; settings: Homo sapiens, U-251, read-out: growth inhibition % (GI%)
Experimental: as §1, §2

SN 12 C = experiment: as above; assay type: cell-based; settings: Homo sapiens, SN12C, read-out: growth inhibition % (GI%)
Experimental: as §1, §2

SW-620 = experiment: as above; assay type: cell-based; settings: Homo sapiens, read-out: growth inhibition % (GI%)
Experimental: as §1, §2

SNB-75 = experiment: as above; assay type: cell-based; settings: Homo sapiens, read-out: growth inhibition % (GI%)
Experimental: as §1, §2

NCI/ADR-RES = experiment: as above; assay type: cell-based; settings: Homo sapiens, read-out: growth inhibition % (GI%)
Experimental: as §1, §2

NCI-H522 = experiment: as above; assay type: cell-based; settings: Homo sapiens, read-out: growth inhibition % (GI%)
Experimental: as §1, §2

ACHN = experiment: as above; assay type: cell-based; settings: Homo sapiens, read-out: growth inhibition % (GI%)
Experimental: as §1, §2

NCI-H226 = experiment: as above; assay type: cell-based; settings: Homo sapiens, read-out: growth inhibition % (GI%)
Experimental: as §1, §2

OVCAR-5 = experiment: as above; assay type: cell-based; settings: Homo sapiens, read-out: growth inhibition % (GI%)
Experimental: as §1, §2

UO-31 = experiment: as above; assay type: cell-based; settings: Homo sapiens, read-out: growth inhibition % (GI%)
Experimental: as §1, §2

LOX IMVI = experiment: as above; assay type: cell-based; settings: Homo sapiens, read-out: growth inhibition % (GI%)
Experimental: as §1, §2

PC-3 = experiment: as above; assay type: cell-based; settings: Homo sapiens, read-out: growth inhibition % (GI%)
Experimental: as §1, §2

IGROV1 = experiment: as above; assay type: cell-based; settings: Homo sapiens, IGROV-1, read-out: growth inhibition % (GI%)
Experimental: as §1, §2

MCF7 = experiment: as above; assay type: cell-based; settings: Homo sapiens, read-out: growth inhibition % (GI%)
Experimental: as §1, §2

SK-MEL-5 = experiment: as above; assay type: cell-based; settings: Homo sapiens, read-out: growth inhibition % (GI%)
Experimental: as §1, §2

SF-539 = experiment: as above; assay type: cell-based; settings: Homo sapiens, read-out: growth inhibition % (GI%)
Experimental: as §1, §2

CAKI-1 = experiment: as above; assay type: cell-based; settings: Homo sapiens, read-out: growth inhibition % (GI%)
Experimental: as §1, §2

OVCAR-8 = experiment: as above; assay type: cell-based; settings: Homo sapiens, read-out: growth inhibition % (GI%)
Experimental: as §1, §2

MDA-MB-231/ATCC = experiment: as above; assay type: cell-based; settings: Homo sapiens, read-out: growth inhibition % (GI%)
Experimental: as §1, §2

K-562 = experiment: as above; assay type: cell-based; settings: Homo sapiens, K562, read-out: growth inhibition % (GI%)
Experimental: as §1, §2

HOP-62 = experiment: as above; assay type: cell-based; settings: Homo sapiens, read-out: growth inhibition % (GI%)
Experimental: as §1, §2

UACC-62 = experiment: as above; assay type: cell-based; settings: Homo sapiens, read-out: growth inhibition % (GI%)
Experimental: as §1, §2

MDA-MB-435 = experiment: as above; assay type: cell-based; settings: Homo sapiens, read-out: growth inhibition % (GI%)
Experimental: as §1, §2

T-47D = experiment: as above; assay type: cell-based; settings: Homo sapiens, T47D, read-out: growth inhibition % (GI%)
Experimental: as §1, §2

SNB-19 = experiment: as above; assay type: cell-based; settings: Homo sapiens, read-out: growth inhibition % (GI%)
Experimental: as §1, §2

HOP-92 = experiment: as above; assay type: cell-based; settings: Homo sapiens, read-out: growth inhibition % (GI%)
Experimental: as §1, §2

SF-268 = experiment: as above; assay type: cell-based; settings: Homo sapiens, read-out: growth inhibition % (GI%)
Experimental: as §1, §2

Cc1ccc(C(=O)c2ccc(CC(=O)NN=C3C(=O)Nc4ccc(OC(F)(F)F)cc43)n2C)cc1 [Compound 6c, 2–(1-Methyl-5–(4-methylbenzoyl)-1H-pyrrol-2-yl)-N′-(2-oxo-5-(trifluoromethoxy)indolin-3-ylidene)acetohydrazide]
24.3%: inhibition at 10 µM (UO-31)
12.6%: inhibition at 10 µM (CAKI-1)
11.1%: inhibition at 10 µM (HOP-62)
37.1%: inhibition at 10 µM (SNB-75)
157 to 159 °C: melting point
11.9%: inhibition at 10 µM (NCI-H522)
< 10%: inhibition at 10 µM (MDA-MB-468) | inhibition at 10 µM (SF-295) | inhibition at 10 µM (U251) | inhibition at 10 µM (SN 12 C) | inhibition at 10 µM (SW-620) | inhibition at 10 µM (NCI/ADR-RES) | inhibition at 10 µM (ACHN) | inhibition at 10 µM (NCI-H226) | inhibition at 10 µM (OVCAR-5) | inhibition at 10 µM (LOX IMVI) | inhibition at 10 µM (PC-3) | inhibition at 10 µM (IGROV1) | inhibition at 10 µM (MCF7) | inhibition at 10 µM (SK-MEL-5) | inhibition at 10 µM (SF-539) | inhibition at 10 µM (OVCAR-8) | inhibition at 10 µM (MDA-MB-231/ATCC) | inhibition at 10 µM (K-562) | inhibition at 10 µM (UACC-62) | inhibition at 10 µM (MDA-MB-435) | inhibition at 10 µM (T-47D) | inhibition at 10 µM (SNB-19) | inhibition at 10 µM (HOP-92) | inhibition at 10 µM (SF-268)
